Measured values as given in patent US9447075B2, “Pyridazine derivatives as EAAT2 activators” (The Brigham and Women's Hospital, Inc., priority 2011, dated 2016).

System: EAAT2
Assay: EAAT2 protein levels in PA-EAAT2 cells by Western blot
Format: cell-based, human
Settings: for Fold increase for EAAT2, 4 h / Fold increase for EAAT2, 24 h: compound 10 μM, PA-EAAT2 cells, relative to DMSO controls, na = not active; for Fold increase for EAAT2, 4 h: 4 h incubation; for Fold increase for EAAT2, 24 h: 24 h incubation; for SAR comparison of activity on EAAT2 protein levels, in words: relative to parent/comparator analogue, Tables 1-4
Experimental: All of the derivates of 1 were initially evaluated in PA-EAAT2 cells^3 (a primary astrocyte line stably expressing EAAT2 mRNAs) following compound (10 μM) incubation for 4 and 24 h before harvesting and measuring EAAT2 levels by Western blot analysis. The fold increases in EAAT2 protein levels relative to DMSO controls are reported (Tables 1-4).
Characterization and efficacy studies of a compound, Compound 212320 (FIG. 6A) is shown. […] In the absence of serum, PA-EAAT2 cells express low amounts of EAAT2 protein, although the recombinant EAAT2 mRNA are expressed (translational silencing); however, EAAT2 protein levels are increased when an activator is added to the culture (translational activation). This cell line was used for high-throughput screening to identify EAAT2 translational activators. To prioritize candidate compounds, we initially evaluated activation of EAAT2 protein in PA-EAAT2 cells. Promising compounds were further evaluated in primary dissociated neuron and astrocyte mixed cultures and then in mice. FIG. 6 presents the characterization of Compound 212320 in PA-EAAT2 cells. Compound 212320 increased EAAT2 protein levels in a dose—(FIG. 6B) and time—(FIG. 6C) dependent manner. Importantly, the induction occurred in a short amount of time (within 1-2 hr) and was sustained even up to 72 hr (data not show). Additionally, induction occurred at low nanomolar concentrations. […] (FIG. 6D).

| SMILES | Fold increase for EAAT2, 4 h [fold] | Fold increase for EAAT2, 24 h [fold] | SAR comparison of activity on EAAT2 protein levels, in words | Activity (EAAT2 increase), in words (compounds 23-27 assessed) |
| --- | --- | --- | --- | --- |
| Cc1ccccc1CCSc1ccc(-c2ccccn2)nn1 [Compound 7-32] | 1.2 ± 0.3 | 2.8 ± 0.4 | exception |  |
| Fc1ccc(Sc2ccc(-c3ccccn3)nn2)c(Cl)c1 [Compound 7-34] | 1.3 ± 0.1 | 2.5 ± 0.7 |  |  |
| Fc1ccc(CSc2ccc(-c3ccccn3)nn2)c(Cl)c1 [Compound 7-35] | 1.6 ± 0.6 | 1.7 ± 0.4 |  |  |
| CCSc1ccc(-c2ccccn2)nn1 [Compound 7-36] | 1.6 ± 0.7 | 1.9 ± 0.9 | essentially the same potency as 1 |  |
| Cc1ccccc1COc1ccc(-c2ccccn2)nn1 [Compound 8-1] | 2.0 ± 0.9 | 2.5 ± 0.5 |  |  |
| Fc1cccc(Cl)c1COc1ccc(-c2ccccn2)nn1 [Compound 8-2] | 1.1 ± 0.3 | 2.9 ± 0.4 |  |  |
| Cc1cccc(C)c1COc1ccc(-c2ccccn2)nn1 [Compound 8-3] | 2.1 ± 1.2 | 3.2 ± 1.4 |  |  |
| Fc1cccc(Cl)c1CCOc1ccc(-c2ccccn2)nn1 [Compound 8-5] | 2.2 ± 0.4 | 3.1 ± 1.2 |  |  |
| Fc1ccc(COc2ccc(-c3ccccn3)nn2)c(F)c1 [Compound 8-6] |  | 2.3 ± 0.6 |  |  |
| Cc1ccc(COc2ccc(-c3ccccn3)nn2)c(C)c1 [Compound 8-7] |  | 2.0 ± 0.9 |  |  |
| O=S(=O)(Cc1c(F)cccc1Cl)c1ccc(-c2ccccn2)nn1 [Compound 9-1] | 1.4 ± 0.3 | 2.8 ± 0.4 | detrimental |  |
| Cc1ccccc1CS(=O)(=O)c1ccc(-c2ccccn2)nn1 [Compound 9-2] | 2.3 ± 0.4 | 1.1 ± 0.2 | detrimental |  |
| O=S(=O)(Cc1ccccc1Cl)c1ccc(-c2ccccn2)nn1 [Compound 9-3] | 1.6 ± 0.3 |  | detrimental |  |
| Cc1ccccc1CNc1ccc(-c2ccccn2)nn1 [Compound 14] | 1.7 ± 1.1 | 2.6 ± 0.5 | weaker activity |  |
| Cc1ccccc1COc1ccc(-c2ccccn2)nc1 [Compound 15] | 1.5 ± 0.3 |  |  |  |
| CCCNC(=O)c1ccc(-c2ccccn2)nn1 [Compound 17-1] |  | 1.2 ± 0.2 | not tolerated |  |
| Cc1ccccc1CNC(=O)c1ccc(-c2ccccn2)nn1 [Compound 17-2] |  | 1.4 ± 0.2 | not tolerated |  |
| c1ccc(CSc2ccc(-c3ccccn3)cc2)cc1 [Compound 19] | 1.2 ± 0.5 | 1.1 ± 0.4 |  |  |
| Cc1ccccc1CSc1ccc(-c2ccccn2)cn1 [Compound 22] | 1.3 ± 0.6 |  |  |  |
| CC(C)OC(=O)c1ccc(-c2ccccn2)nn1 [Compound 27] |  |  |  | active |
